Experimental findings from EP4603105A1, “PHARMACEUTICAL COMPOSITION CONTAINING CYCLIC COMPOUND HAVING SELECTIVE KRAS INHIBITORY EFFECT AGAINST HRAS AND NRAS” (CHUGAI SEIYAKU KABUSHIKI KAISHA, priority 2022, dated 2024) are described below.

For one assay, the target named is HRAS wild-type protein (Homo sapiens, UniProt P01112). In words: Binding to HRAS by surface plasmon resonance (SPR), KD and KD ratio to KRAS. Put shortly: (§1)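 Each cycle, GDP-bound biotin-Avi RAS was captured (~100–300 RU), compound concentrations were injected low to high for 75 s each at 100 µL/min, then the chip was regenerated. Buffer: HBS pH 7.4, 10 mM MgCl2, 10 µM GDP, 1 mM DTT, 4% DMSO; 30°C. KD from a 1:1 binding model.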
On the technique in general: Surface plasmon resonance follows binding to a sensor surface in real time, without labels.

Assay [1] deals with GDP-bound NRAS wild-type protein (Homo sapiens, UniProt P01111). Description: Binding to NRAS by surface plasmon resonance (SPR), KD and KD ratio to KRAS. Put shortly:
as §1

The target in assay [2] is GDP-bound KRAS wild-type protein (Homo sapiens, UniProt P01116). In words: Binding to KRAS by surface plasmon resonance (SPR), dissociation constant KD. The essentials: as §1
Assay [3] has as its system human lung cancer strain NCI-H441. Description: NCI-H441 cell proliferation inhibitory activity (CellTiter-Glo, 4 days). Type of assay: cell-based. As to conditions: read-out: NCl-H441 IC50. The essentials:
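Signal came from […] measured per well once the reagent was added. Beforehand, cells were cultured at 37°C and 5% carbon dioxide on a compound series serially diluted in dimethyl sulfoxide.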
(In ATP-based viability assays light output follows the ATP content of the culture.)

Where [4] appears, read: ratio of KD for HRAS wild-type protein to KD for KRAS.
Where [5] appears, read: ratio of KD for GDP-bound NRAS wild-type protein to KD for KRAS.

Read-outs that look alike come from different tables or passages of the source.

Sequence of GDP-bound NRAS wild-type protein (P01111 whole entry): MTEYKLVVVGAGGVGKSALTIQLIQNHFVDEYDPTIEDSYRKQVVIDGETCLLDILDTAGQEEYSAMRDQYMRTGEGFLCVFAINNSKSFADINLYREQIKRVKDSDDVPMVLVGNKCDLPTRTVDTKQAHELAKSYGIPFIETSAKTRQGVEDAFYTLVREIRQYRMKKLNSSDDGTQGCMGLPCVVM
Sequence of HRAS wild-type protein (P01112 whole entry): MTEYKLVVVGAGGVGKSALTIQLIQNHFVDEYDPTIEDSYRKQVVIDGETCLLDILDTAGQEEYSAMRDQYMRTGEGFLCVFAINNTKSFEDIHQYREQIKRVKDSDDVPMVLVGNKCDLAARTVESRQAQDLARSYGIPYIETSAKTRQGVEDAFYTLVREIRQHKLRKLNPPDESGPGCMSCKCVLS
Sequence of GDP-bound KRAS wild-type protein (P01116 1-188 isoform P01116-2): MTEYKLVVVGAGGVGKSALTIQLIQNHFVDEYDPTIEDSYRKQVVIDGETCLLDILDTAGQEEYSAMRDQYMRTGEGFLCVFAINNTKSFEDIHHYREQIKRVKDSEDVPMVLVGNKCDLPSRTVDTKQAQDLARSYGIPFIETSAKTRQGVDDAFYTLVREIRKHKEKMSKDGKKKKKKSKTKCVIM

As for `CCCN1CC(=O)N(C)[C@H]2C/C=C\CCN(C2=O)[C@@H](Cc2ccc(C(F)F)cc2)C(=O)N(C)CC(=O)N[C@@H](CCc2cc(F)c(C(F)(F)F)c(F)c2)C(=O)N2C[C@H](OC(C)C)C[C@H]2C(=O)N(C)C2(CCC2)C(=O)N(C)[C@@H](C(CC)CC)C(=O)N(C)[C@H](C(=O)N(C)C)CC(=O)N(C)[C@@H](COCC)C(=O)N[C@@H](C2CCCC2)C1=O` [PP3498], the “HRAS /KRAS” value on HRAS wild-type protein (setting [4]) was “A (a compound having 10 or more and less than 20 is denoted as A)”. Also, the “NRAS /KRAS” value in assay [1] (setting [5]) was “A (a compound having 10 or more and less than 20 is denoted as A)”. The Kd in assay [2] (Single Cycle Kinetics) is 0.94 nM. For the same compound, in assay [3] (NCI-H441 cells, 4 days), the IC50 stood at 24.7 nM.

As to `CCC[C@H]1C(=O)N[C@@H]([C@@H](C)CC)C(=O)N(C2CC2)CC(=O)N(C)[C@H]2C/C=C\CCN(C2=O)[C@@H](Cc2ccc(C(F)(F)F)cc2)C(=O)N(C)CC(=O)N[C@@H](CCc2cc(F)c(C(F)(F)F)c(F)c2)C(=O)N2C[C@H](OCC)C[C@H]2C(=O)NC2(CCCC2)C(=O)N(C)[C@@H](C2CCCC2)C(=O)N(C)[C@H](C(=O)N(C)C)CC(=O)N1C` [PP3473], on HRAS wild-type protein (setting [4]), the “HRAS /KRAS” value was “B (a compound having 3 or more and less than 10 is denoted as B)”. For the same compound, in assay [1] (setting [5]), the “NRAS /KRAS” value was “AA (a compound having 20 or more is denoted as AA)”. In assay [2] (Single Cycle Kinetics), this compound had a Kd of 0.53 nM. The IC50 in assay [3] (NCI-H441 cells, 4 days) worked out at 13.5 nM.

For `CCC[C@H]1C(=O)N[C@@H]([C@@H](C)CC)C(=O)N(C2CC2)CC(=O)N(C)[C@H]2C/C=C\CCN(C2=O)[C@@H](Cc2ccc(C(F)(F)F)cc2)C(=O)N(C)CC(=O)N[C@@H](CCc2ccc(C(F)(F)F)c(OC)c2)C(=O)N2C[C@H](OCC)C[C@H]2C(=O)NC2(CC(C)(C)C2)C(=O)N(C)[C@@H](CC(C)(C)C)C(=O)N(C)[C@H](C(=O)N(C)C)CC(=O)N1C` [PP2746], the “HRAS /KRAS” value on HRAS wild-type protein (setting [4]) is “A (a compound having 10 or more and less than 20 is denoted as A)”. Further, the “NRAS /KRAS” value in assay [1] (setting [5]) was “A (a compound having 10 or more and less than 20 is denoted as A)”. This compound registered a Kd in assay [2] (1:1 binding model) of 0.28 nM. Moreover, the IC50 in assay [3] (NCI-H441 cells, 4 days) was found to be 10.2 nM.

Take `CCO[C@@H]1C[C@H]2C(=O)NC3(CC(C)(C)C3)C(=O)N(C)[C@@H](C(CC)CC)C(=O)N(C)[C@H](C(=O)N(C)C)CC(=O)N(C)[C@@H](COC)C(=O)N[C@@H]([C@@H](C)CC)C(=O)N(C3CC3)CC(=O)N(C)[C@H]3C/C=C\CCN(C3=O)[C@@H](CC3CCC(F)(F)CC3)C(=O)N(C)CC(=O)N[C@@H](CCc3ccc(Cl)c(Cl)c3)C(=O)N2C1` [PP2569]: on HRAS wild-type protein (setting [4]), the “HRAS /KRAS” value was “A (a compound having 10 or more and less than 20 is denoted as A)”. Moreover, the “NRAS /KRAS” value in assay [1] (setting [5]) was “AA (a compound having 20 or more is denoted as AA)”. In addition, the affinity in assay [2] (1:1 binding model), expressed as Kd, was 2.8 nM. Moreover, the IC50 in assay [3] (NCI-H441 cells, 4 days) amounted to 185 nM.

Turning to `CCC[C@H]1C(=O)N[C@@H]([C@@H](C)CC)C(=O)N(C)CC(=O)N(C)[C@H]2C/C=C\CCN(C2=O)[C@@H](CC2CCC(F)(F)CC2)C(=O)N(C)CC(=O)N[C@@H](CCc2ccc(C(F)(F)F)c(Cl)c2)C(=O)N2C[C@H](OCC)C[C@H]2C(=O)NC2(CC(C)(C)C2)C(=O)N(C)[C@@H](C(CC)CC)C(=O)N(C)[C@H](C(=O)N(C)C)CC(=O)N1C` [PP2498], at HRAS wild-type protein (setting [4]), the “HRAS /KRAS” value was “A (a compound having 10 or more and less than 20 is denoted as A)”. The “NRAS /KRAS” value in assay [1] (setting [5]) is “A (a compound having 10 or more and less than 20 is denoted as A)”. For the same compound, the dissociation constant (Kd) in assay [2] (1:1 binding model) turned out to be 0.67 nM. For the same compound, the IC50 in assay [3] (NCI-H441 cells, 4 days) was 21.9 nM.

`CCO[C@@H]1C[C@H]2C(=O)NC3(CCC3)C(=O)N(C)[C@@H](C3CCCC3)C(=O)N(C)[C@H](C(=O)N(C)C)CC(=O)N(C)[C@@H](CC3CC3)C(=O)N[C@@H]([C@@H](C)CC)C(=O)N(C)CC(=O)N(C)[C@H]3C/C=C\CCN(C3=O)[C@@H](Cc3ccc(C)cc3)C(=O)N(C)CC(=O)N[C@@H](CCc3cc(F)c(C(F)(F)F)c(F)c3)C(=O)N2C1` [PP1407]: the “HRAS /KRAS” value at HRAS wild-type protein (ratio of KD with respect to HRAS wild-type protein to KD with respect to KRAS) was “A (a compound having 10 or more and less than 20 is denoted as A)”. Moreover, in assay [1] (ratio of KD with respect to GDP-bound NRAS wild-type protein to KD with respect to KRAS), the “NRAS /KRAS” value is “A (a compound having 10 or more and less than 20 is denoted as A)”. Also, the Kd in assay [2] (Single Cycle Kinetics, 1:1 binding model) was determined as 0.074 nM. Besides, the 50% inhibitory concentration (IC50) in assay [3] (50% proliferation inhibitory concentration, four days) worked out at 18.7 nM.

For the compound `CCO[C@@H]1C[C@H]2C(=O)NC3(CC(C)(C)C3)C(=O)N(C)[C@@H](C3CCCC3)C(=O)N(C)[C@H](C(=O)N(C)CC)CC(=O)N(C)[C@@H]([C@H](C)OC)C(=O)N[C@@H]([C@@H](C)CC)C(=O)N3CCC[C@H]3C(=O)N(C)[C@H]3C/C=C\CCN(C3=O)[C@@H](Cc3ccc(C)cc3)C(=O)N(C)CC(=O)N[C@@H](CCc3ccc(C(F)(F)F)c(Cl)c3)C(=O)N2C1` [PP3165], the “HRAS /KRAS” value on HRAS wild-type protein (setting [4]) is “A (a compound having 10 or more and less than 20 is denoted as A)”. In addition, the “NRAS /KRAS” value in assay [1] (setting [5]) is “A (a compound having 10 or more and less than 20 is denoted as A)”. In assay [2] (Single Cycle Kinetics), this compound showed a Kd of 1.9 nM. Moreover, the IC50 in assay [3] (NCI-H441 cells, 4 days) is 480 nM.

As for `CCCC[C@H]1C(=O)N[C@@H]([C@@H](C)CC)C(=O)N2CCC[C@H]2C(=O)N(C)[C@H]2C/C=C\CCN(C2=O)[C@@H](Cc2ccc(C(F)(F)F)cc2)C(=O)N(C)CC(=O)N[C@@H](CCc2ccc(C(F)(F)F)c(OC)c2)C(=O)N2C[C@H](OCC)C[C@H]2C(=O)OC2(CCC2)C(=O)N(C)[C@@H](C2CCCC2)C(=O)N(C)[C@H](C(=O)N(C)C)CC(=O)N1C` [PP3365], the “HRAS /KRAS” value on HRAS wild-type protein (setting [4]) is “A (a compound having 10 or more and less than 20 is denoted as A)”. For the same compound, in assay [1] (setting [5]), the “NRAS /KRAS” value is “AA (a compound having 20 or more is denoted as AA)”. Besides, in assay [2] (Single Cycle Kinetics), the Kd came to 0.65 nM. For the same compound, in assay [3] (NCI-H441 cells, 4 days), the IC50 is 19.4 nM.

As for `CCCOC[C@H]1C(=O)N[C@@H]([C@@H](C)CC)C(=O)N(C)CC(=O)N(C)[C@H]2C/C=C\CCN(C2=O)[C@@H](Cc2ccc(C)cc2)C(=O)N(C)CC(=O)N[C@@H](CCc2cc(F)c(C(F)(F)F)c(F)c2)C(=O)N2C[C@H](OCC)C[C@H]2C(=O)NC2(CC(C)(C)C2)C(=O)N(C)[C@@H](CC2CCC2)C(=O)N(C)[C@H](C(=O)N(C)C)CC(=O)N1C` [PP2752], on HRAS wild-type protein (setting [4]), the “HRAS /KRAS” value was “A (a compound having 10 or more and less than 20 is denoted as A)”. Further, the “NRAS /KRAS” value in assay [1] (setting [5]) was “A (a compound having 10 or more and less than 20 is denoted as A)”. In addition, in assay [2] (1:1 binding model), the Kd stood at 1.2 nM. In assay [3] (NCI-H441 cells, 4 days), the IC50 was found to be 70.3 nM.

`CCC[C@H]1C(=O)N[C@@H](CC(C)C)C(=O)N(CCOC)CC(=O)N(C)[C@H]2C/C=C\CCN(C2=O)[C@@H](Cc2ccc(C)cc2)C(=O)N(C)CC(=O)N[C@@H](CCc2ccc(C(F)(F)F)c(OC)c2)C(=O)N2C[C@H](OCC)C[C@H]2C(=O)NC2(CCC2)C(=O)N(C)[C@@H](C2CCCC2)C(=O)N(C)[C@H](C(=O)N(C)C)CC(=O)N1C` [PP2542]: the “HRAS /KRAS” value on HRAS wild-type protein (setting [4]) is “B (a compound having 3 or more and less than 10 is denoted as B)”. The “NRAS /KRAS” value in assay [1] (setting [5]) is “B (a compound having 3 or more and less than 10 is denoted as B)”. In assay [2] (1:1 binding model), this compound displayed a Kd of 4.6 nM. The IC50 in assay [3] (NCI-H441 cells, 4 days) was determined as 394 nM.

With `CCC[C@H]1C(=O)N[C@@H]([C@@H](C)CC)C(=O)N(C2CC2)CC(=O)N(C)[C@H]2C/C=C\CCN(C2=O)[C@@H](CC2CCC(F)(F)CC2)C(=O)N(C)CC(=O)N[C@@H](CCc2ccc(C(F)(F)F)c(OC)c2)C(=O)N2C[C@@H](C)C[C@H]2C(=O)N(C)C2(CCC2)C(=O)N(C)[C@@H](C2CCCC2)C(=O)N(C)[C@H](C(=O)N(C)C)CC(=O)N1C` [PP2378], the “HRAS /KRAS” value on HRAS wild-type protein (setting [4]) was “A (a compound having 10 or more and less than 20 is denoted as A)”. In assay [1] (setting [5]), the “NRAS /KRAS” value is “B (a compound having 3 or more and less than 10 is denoted as B)”. The compound further returned a Kd in assay [2] (1:1 binding model) of 0.88 nM. Moreover, the IC50 in assay [3] (NCI-H441 cells, 4 days) worked out at 48.3 nM.

A word on the Kd: it is the constant that tells how readily two partners part at equilibrium. A word on the IC50: it is the point on the concentration scale where inhibition reaches its midpoint.
